In ChEMBL document CHEMBL3632528 (J Nat Prod, 2015):

Assays:
[1] = molecular target: T1, Liver carboxylesterase 1 (Homo sapiens, UniProt P23141); assay: Inhibition of human carboxylesterase 1 using 2-(2'-benzoyl-3'-methoxylphenyl)-benzothiazole as substrate at 0.1 to 200 uM by fluorescence assay
T1 sequence (P23141 whole entry): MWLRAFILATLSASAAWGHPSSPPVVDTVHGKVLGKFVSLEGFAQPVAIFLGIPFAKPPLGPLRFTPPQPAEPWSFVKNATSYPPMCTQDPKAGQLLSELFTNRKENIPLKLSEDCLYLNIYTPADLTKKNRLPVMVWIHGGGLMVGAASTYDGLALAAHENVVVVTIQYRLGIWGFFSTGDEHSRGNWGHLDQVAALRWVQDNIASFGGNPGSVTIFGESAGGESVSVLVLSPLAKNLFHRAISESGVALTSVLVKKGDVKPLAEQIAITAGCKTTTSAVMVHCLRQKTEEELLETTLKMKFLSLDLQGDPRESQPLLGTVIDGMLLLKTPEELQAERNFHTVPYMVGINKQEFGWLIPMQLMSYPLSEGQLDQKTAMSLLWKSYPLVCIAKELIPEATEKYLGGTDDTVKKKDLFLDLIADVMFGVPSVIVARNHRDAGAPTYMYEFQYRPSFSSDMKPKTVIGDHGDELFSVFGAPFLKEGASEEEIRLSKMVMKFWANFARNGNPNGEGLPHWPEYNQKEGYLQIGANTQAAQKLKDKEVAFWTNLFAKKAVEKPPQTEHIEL

[2] = molecular target: T2, Cocaine esterase (Homo sapiens, UniProt O00748); assay: Inhibition of human carboxylesterase 2 using 4-benzoyl-N-butyl-1,8-naphthalimide as substrate by fluorescence assay
T2 sequence (O00748 whole entry): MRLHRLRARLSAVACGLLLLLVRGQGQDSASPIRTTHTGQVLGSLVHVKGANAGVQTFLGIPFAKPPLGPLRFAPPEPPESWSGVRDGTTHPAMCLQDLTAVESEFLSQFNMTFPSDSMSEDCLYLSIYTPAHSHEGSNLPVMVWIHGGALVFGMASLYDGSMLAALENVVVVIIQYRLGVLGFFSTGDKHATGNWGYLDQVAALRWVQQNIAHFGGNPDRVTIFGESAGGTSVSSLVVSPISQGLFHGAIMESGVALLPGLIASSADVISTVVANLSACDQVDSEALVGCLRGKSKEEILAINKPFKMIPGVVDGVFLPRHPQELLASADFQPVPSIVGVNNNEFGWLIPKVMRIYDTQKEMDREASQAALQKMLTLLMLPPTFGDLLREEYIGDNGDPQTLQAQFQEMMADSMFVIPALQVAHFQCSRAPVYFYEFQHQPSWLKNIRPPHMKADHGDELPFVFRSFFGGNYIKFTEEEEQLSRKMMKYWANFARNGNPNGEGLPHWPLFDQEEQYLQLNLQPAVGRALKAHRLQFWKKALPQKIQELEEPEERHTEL

[3] = molecular target: T2, Cocaine esterase; assay: […] inhibition of human carboxylesterase 2 using 4-benzoyl-N-butyl-1,8-naphthalimide as substrate by Dixon and Lineweaver-Burk plot analysis

| SMILES | inhibition (INH) [1] | IC50 [2] [µM] | Ki [3] [nM] |
| --- | --- | --- | --- |
| C[C@H](CC(=O)[C@H](O)C(C)(C)O)C1=C2C=C[C@H]3[C@@]4(C)CCC(=O)C(C)(C)[C@@H]4CC[C@]3(C)[C@@]2(C)CC1=O | Not Active |  |  |
| C=C(C)[C@@H](O)[C@@H](O)C[C@@H](C)C1=C2C=C[C@H]3[C@@]4(C)CCC(=O)C(C)(C)[C@@H]4CC[C@]3(C)[C@@]2(C)CC1=O | Not Active | 8.68 |  |
| CC(=O)O[C@@H](C[C@@H](C)C1=C2C=C[C@H]3[C@@]4(C)CCC(=O)C(C)(C)[C@@H]4CC[C@]3(C)[C@@]2(C)CC1=O)[C@H](O)C(C)(C)O | Not Active |  |  |
| C[C@H](C[C@H](O)[C@H](O)C(C)(C)O)C1=C2C=C[C@H]3[C@@]4(C)CCC(=O)C(C)(C)[C@@H]4CC(=O)[C@]3(C)[C@@]2(C)CC1=O | Not Active |  |  |
| C[C@H](CC[C@H](O)C(C)(C)O)[C@H]1CC[C@@]2(C)C1=CC=C1[C@]2(C)CC[C@H]2C(C)(C)C(=O)CC[C@]12C | Not Active | 4.58 |  |
| CC1=CC(=O)C[C@@]2(C)[C@H]1CC[C@@]1(C)[C@H]2[C@@H](O)CC2=C([C@H](C)C[C@H](O)[C@@H](O)C(C)(C)O)CC[C@@]21C | Not Active | 2.02 | 1760 |
| CC(=O)C1=C2C=C[C@H]3[C@@]4(C)CCC(=O)C(C)(C)[C@@H]4CC[C@]3(C)[C@@]2(C)CC1=O | Not Active |  |  |
| C[C@H](C[C@H](O)[C@H](O)C(C)(C)O)C1=C2C=C[C@H]3[C@@]4(C)CCC(=O)C(C)(C)[C@@H]4CC[C@]3(C)[C@@]2(C)CC1=O | Not Active |  |  |
| C[C@H](C[C@H](O)[C@@H](O)C(C)(C)O)C1=C2CC[C@H]3[C@@]4(C)CCC(=O)C(C)(C)[C@@H]4CC[C@]3(C)[C@@]2(C)CC1 | Not Active | 4.63 |  |
| C[C@H](C[C@H](O)[C@@H](O)C(C)(C)O)C1=C2C[C@@H]3OC(=O)C[C@@]4(C)[C@H](C(C)(C)C(=O)O)CC[C@@](C)([C@@H]34)[C@@]2(C)CC1 | Not Active | 20.9 |  |

The next lines start with the values.

| inhibition (INH) [1] | IC50 [2] [µM] | Ki [3] [nM] | SMILES |
| --- | --- | --- | --- |
| Not Active |  |  | C=C(C)[C@@H](O)[C@@H](O)C[C@@H](C)C1=C2CC[C@H]3[C@@]4(C)CCC(=O)C(C)(C)[C@@H]4CC[C@]3(C)[C@@]2(C)CC1 |
| Not Active |  |  | CC1(C)O[C@@H]1[C@@H](O)C[C@](C)(O)C1=C2C[C@H](O)[C@H]3[C@@]4(C)CCC(=O)C(C)(C)[C@@H]4CC[C@]3(C)[C@@]2(C)CC1=O |
| Not Active | 4.72 |  | CCOC(C)(C)[C@H](O)[C@@H](O)C[C@@H](C)C1=C2C[C@H](O)[C@H]3[C@@]4(C)CCC(=O)C(C)(C)[C@@H]4CC[C@]3(C)[C@@]2(C)CC1 |
| Not Active |  |  | C[C@H](C[C@H](O)[C@@H](O)C(C)(C)O)C1=C2C[C@H](O)[C@H]3[C@@]4(C)CCC(=O)C(C)(C)[C@@H]4CC[C@]3(C)[C@@]2(C)C=C1 |
| Not Active |  |  | C[C@@H]1CC(=O)[C@@H](C(C)(C)O)O[C@H]2C[C@@]3(C)C(=C12)C=C[C@H]1[C@@]2(C)CCC(=O)C(C)(C)[C@@H]2CC[C@@]13C |
| Not Active |  |  | CC(=O)O[C@@H]([C@@H](O)C[C@@H](C)C1=C2C[C@H](O)[C@H]3[C@@]4(C)CCC(=O)C(C)(C)[C@@H]4CC[C@]3(C)[C@@]2(C)CC1)C(C)(C)O |
| Not Active |  |  | CC(=O)O[C@H]1C[C@@H](C)C2=C3C[C@H](O)[C@H]4[C@@]5(C)CCC(=O)C(C)(C)[C@@H]5CC[C@]4(C)[C@@]3(C)C[C@@H]2O[C@@H]1C(C)(C)O |
| Not Active |  |  | C[C@@H]1C[C@@H]([C@@H](O)C(C)(C)O)O[C@H]2C[C@@]3(C)C(=C12)C=C[C@H]1[C@@]2(C)CCC(=O)C(C)(C)[C@@H]2CC[C@@]13C |
| Not Active | 24.3 |  | CC(=O)O[C@H]([C@@H]1C[C@@H](C)C2=C3C=C[C@H]4[C@@]5(C)CCC(=O)C(C)(C)[C@@H]5CC[C@]4(C)[C@@]3(C)C[C@@H]2O1)C(C)(C)O |
| Not Active |  |  | C=C(C)[C@H](O)[C@@H]1C[C@@H](C)C2=C3C[C@H](O)[C@H]4[C@@]5(C)CCC(=O)C(C)(C)[C@@H]5CC[C@]4(C)[C@@]3(C)C[C@@H]2O1 |
| Not Active |  |  | C[C@H](C[C@H](O)[C@@H](O)C(C)(C)O)C1=C2C[C@H](O)[C@H]3[C@@]4(C)CCC(=O)C(C)(C)[C@@H]4CC[C@]3(C)[C@@]2(C)CC1 [ALISOL A] |
